According to patent US20260262643A1, “HERBICIDAL BENZOXAZINES” (FMC CORPORATION, priority 2022, published 2026):

Experiments:
oat, wild [1] = experiment: Test A preemergence; format: in vivo, Avena fatua
Summary of the method: (§1)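 Visual injury ratings on a 0–100 scale (100 = complete control) versus untreated controls, taken 10 days after treatment in greenhouse. Preemergence: directed soil spray onto seeded loam/sand. Postemergence: foliar application at one- to two-leaf stage, plants 2–10 cm. Formulation: non-phytotoxic solvent plus surfactant.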

corn [2] = experiment: Test A preemergence; format: in vivo, Zea mays
Summary of the method: as §1

corn [3] = experiment: Test A postemergence; format: in vivo, Zea mays
Summary of the method: as §1

barnyardgrass = experiment: Test B flooded paddy test; format: in vivo, Echinochloa crus-galli; conditions: 250 g ai/ha, Flood, 13 days, 0 to 100 scale (0 no effect, 100 complete control)
Summary of the method: (§2)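 Application into standing water (3 cm above soil) at the two-leaf stage; flood depth held constant. Evaluation: day 13, visual comparison with controls, 0 = no injury, 100 = complete control.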

ragweed [4] = experiment: Test A postemergence; format: in vivo, Ambrosia artemisiifolia
Summary of the method: as §1

soybean [5] = experiment: Test A postemergence; format: in vivo, Glycine max
Summary of the method: as §1

goosegrass [6] = experiment: Test A preemergence; format: in vivo, Eleusine indica
Summary of the method: as §1

kochia [7] = experiment: Test A postemergence; format: in vivo, Bassia scoparia
Summary of the method: as §1

ducksalad = experiment: Test B flooded paddy test; format: in vivo, Heteranthera limosa; conditions: 250 g ai/ha, Flood, 13 days, 0 to 100 scale (0 no effect, 100 complete control)
Summary of the method: as §2

oat, wild [8] = experiment: Test A postemergence; format: in vivo, Avena fatua
Summary of the method: as §1

rice = experiment: Test B flooded paddy test; format: in vivo, Oryza sativa; conditions: 250 g ai/ha, Flood, 13 days, 0 to 100 scale (0 no effect, 100 complete control)
Summary of the method: as §2

ryegrass, Italian [9] = experiment: Test A postemergence; format: in vivo, Lolium multiflorum
Summary of the method: as §1

pigweed, palmer [10] = experiment: Test A postemergence; format: in vivo, Amaranthus palmeri
Summary of the method: as §1

soybean [11] = experiment: Test A preemergence; format: in vivo, Glycine max
Summary of the method: as §1

pigweed, palmer [12] = experiment: Test A preemergence; format: in vivo, Amaranthus palmeri
Summary of the method: as §1

blackgrass [13] = experiment: Test A preemergence; format: in vivo, Alopecurus myosuroides
Summary of the method: as §1

ryegrass, Italian [14] = experiment: Test A preemergence; format: in vivo, Lolium multiflorum
Summary of the method: as §1

wheat [15] = experiment: Test A postemergence; format: in vivo, Triticum aestivum
Summary of the method: as §1

ragweed [16] = experiment: Test A preemergence; format: in vivo, Ambrosia artemisiifolia
Summary of the method: as §1

kochia [17] = experiment: Test A preemergence; format: in vivo, Bassia scoparia
Summary of the method: as §1

sedge, umbrella = experiment: Test B flooded paddy test; format: in vivo, Cyperus difformis; conditions: 250 g ai/ha, Flood, 13 days, 0 to 100 scale (0 no effect, 100 complete control)
Summary of the method: as §2

foxtail, giant [18] = experiment: Test A preemergence; format: in vivo, Setaria faberi
Summary of the method: as §1

wheat [19] = experiment: Test A preemergence; format: in vivo, Triticum aestivum
Summary of the method: as §1

foxtail, giant [20] = experiment: Test A postemergence; format: in vivo, Setaria faberi
Summary of the method: as §1

goosegrass [21] = experiment: Test A postemergence; format: in vivo, Eleusine indica
Summary of the method: as §1

blackgrass [22] = experiment: Test A postemergence; format: in vivo, Alopecurus myosuroides
Summary of the method: as §1

galium = experiment: Test A postemergence; format: in vivo, Galium aparine
Summary of the method: as §1

[23] = 125 g ai/ha, visual injury after 10 days, 0 to 100 scale, 0 is no effect, 100 is complete control
[24] = 500 g ai/ha, 0 to 100 scale (0 no effect, 100 complete control), 10 days
[25] = 125 g ai/ha, postemergence, 10 days, visual injury, 0 to 100 scale (0 no effect, 100 complete control)
[26] = 500 g ai/ha, Postemergence, 0 to 100 scale

SMILES: Cc1cc(F)cc2c1OC(C)CN2C(=O)c1cccc(-n2cncn2)c1 (centres unmarked) [Compound 44]
- Plant response rating, Oat, Wild (oat, wild [1]; [23]): 10
- Plant response rating, Oat, Wild (oat, wild [1]; [24]): 50
- Plant response rating, Corn (corn [2]; [23]): 10
- Plant response rating, Corn (corn [2]; [24]): 30
- Plant response rating, Corn (corn [3]; [25]): 30
- Plant response rating, Corn (corn [3]; [26]): 70
- Plant response rating, Barnyardgrass (barnyardgrass): 0
- Plant response rating, Ragweed (ragweed [4]; [25]): 0
- Plant response rating, Ragweed (ragweed [4]; [26]): 0
- Plant response rating, Soybean (soybean [5]; [25]): 100
- Plant response rating, Soybean (soybean [5]; [26]): 100
- Plant response rating, Goosegrass (goosegrass [6]; [23]): 90
- Plant response rating, Goosegrass (goosegrass [6]; [24]): 100
- Plant response rating, Kochia (kochia [7]; [25]): 10
- Plant response rating, Kochia (kochia [7]; [26]): 20
- Plant response rating, Ducksalad (ducksalad): 0
- Plant response rating, Oat, Wild (oat, wild [8]; [25]): 0
- Plant response rating, Oat, Wild (oat, wild [8]; [26]): 80
- Plant response rating, Rice (rice): 0
- Plant response rating, Ryegrass, Italian (ryegrass, Italian [9]; [25]): 50
- Plant response rating, Ryegrass, Italian (ryegrass, Italian [9]; [26]): 80
- Plant response rating, Pigweed, Palmer (pigweed, palmer [10]; [25]): 30
- Plant response rating, Pigweed, Palmer (pigweed, palmer [10]; [26]): 10
- Plant response rating, Soybean (soybean [11]; [23]): 40
- Plant response rating, Soybean (soybean [11]; [24]): 70
- Plant response rating, Pigweed, Palmer (pigweed, palmer [12]; [23]): 10
- Plant response rating, Pigweed, Palmer (pigweed, palmer [12]; [24]): 20
- Plant response rating, Blackgrass (blackgrass [13]; [23]): 10
- Plant response rating, Blackgrass (blackgrass [13]; [24]): 80
- Plant response rating, Ryegrass, Italian (ryegrass, Italian [14]; [23]): 80
- Plant response rating, Ryegrass, Italian (ryegrass, Italian [14]; [24]): 100
- Plant response rating, Wheat (wheat [15]; [25]): 30
- Plant response rating, Wheat (wheat [15]; [26]): 80
- Plant response rating, Ragweed (ragweed [16]; [23]): 0
- Plant response rating, Ragweed (ragweed [16]; [24]): 0
- Plant response rating, Kochia (kochia [17]; [23]): 0
- Plant response rating, Kochia (kochia [17]; [24]): 20
- Plant response rating, Sedge, Umbrella (sedge, umbrella): 0
- Plant response rating, Foxtail, Giant (foxtail, giant [18]; [23]): 70
- Plant response rating, Foxtail, Giant (foxtail, giant [18]; [24]): 100
- Plant response rating, Wheat (wheat [19]; [23]): 0
- Plant response rating, Wheat (wheat [19]; [24]): 40
- Plant response rating, Foxtail, Giant (foxtail, giant [20]; [25]): 40
- Plant response rating, Foxtail, Giant (foxtail, giant [20]; [26]): 90
- Plant response rating, Goosegrass (goosegrass [21]; [25]): 30
- Plant response rating, Goosegrass (goosegrass [21]; [26]): 70
- Plant response rating, Blackgrass (blackgrass [22]; [25]): 30
- Plant response rating, Blackgrass (blackgrass [22]; [26]): 60
- Plant response rating, Galium (galium; [25]): 50
- Plant response rating, Galium (galium; [26]): 70

SMILES: CC1CN(C(=O)c2cccc(-n3cncn3)c2)c2cc(F)cc(F)c2O1 (centres unmarked) [Compound 45]
- Plant response rating, Oat, Wild (oat, wild [1]; [23]): 0
- Plant response rating, Oat, Wild (oat, wild [1]; [24]): 80
- Plant response rating, Corn (corn [2]; [23]): 0
- Plant response rating, Corn (corn [2]; [24]): 20
- Plant response rating, Corn (corn [3]; [25]): 10
- Plant response rating, Corn (corn [3]; [26]): 20
- Plant response rating, Barnyardgrass (barnyardgrass): 0
- Plant response rating, Ragweed (ragweed [4]; [25]): 0
- Plant response rating, Ragweed (ragweed [4]; [26]): 30
- Plant response rating, Soybean (soybean [5]; [25]): 100
- Plant response rating, Soybean (soybean [5]; [26]): 100
- Plant response rating, Goosegrass (goosegrass [6]; [23]): 70
- Plant response rating, Goosegrass (goosegrass [6]; [24]): 100
- Plant response rating, Kochia (kochia [7]; [25]): 10
- Plant response rating, Kochia (kochia [7]; [26]): 80
- Plant response rating, Ducksalad (ducksalad): 0
- Plant response rating, Oat, Wild (oat, wild [8]; [25]): 0
- Plant response rating, Oat, Wild (oat, wild [8]; [26]): 20
- Plant response rating, Rice (rice): 0
- Plant response rating, Ryegrass, Italian (ryegrass, Italian [9]; [25]): 50
- Plant response rating, Ryegrass, Italian (ryegrass, Italian [9]; [26]): 80
- Plant response rating, Pigweed, Palmer (pigweed, palmer [10]; [25]): 30
- Plant response rating, Pigweed, Palmer (pigweed, palmer [10]; [26]): 10
- Plant response rating, Soybean (soybean [11]; [23]): 20
- Plant response rating, Soybean (soybean [11]; [24]): 90
- Plant response rating, Pigweed, Palmer (pigweed, palmer [12]; [23]): 30
- Plant response rating, Pigweed, Palmer (pigweed, palmer [12]; [24]): 70
- Plant response rating, Blackgrass (blackgrass [13]; [23]): 50
- Plant response rating, Blackgrass (blackgrass [13]; [24]): 80
- Plant response rating, Ryegrass, Italian (ryegrass, Italian [14]; [23]): 70
- Plant response rating, Ryegrass, Italian (ryegrass, Italian [14]; [24]): 90
- Plant response rating, Wheat (wheat [15]; [25]): 10
- Plant response rating, Wheat (wheat [15]; [26]): 40
- Plant response rating, Ragweed (ragweed [16]; [23]): 0
- Plant response rating, Ragweed (ragweed [16]; [24]): 0
- Plant response rating, Kochia (kochia [17]; [23]): 0
- Plant response rating, Kochia (kochia [17]; [24]): 20
- Plant response rating, Sedge, Umbrella (sedge, umbrella): 0
- Plant response rating, Foxtail, Giant (foxtail, giant [18]; [23]): 70
- Plant response rating, Foxtail, Giant (foxtail, giant [18]; [24]): 100
- Plant response rating, Wheat (wheat [19]; [23]): 0
- Plant response rating, Wheat (wheat [19]; [24]): 60
- Plant response rating, Foxtail, Giant (foxtail, giant [20]; [25]): 20
- Plant response rating, Foxtail, Giant (foxtail, giant [20]; [26]): 90
- Plant response rating, Goosegrass (goosegrass [21]; [25]): 0
- Plant response rating, Goosegrass (goosegrass [21]; [26]): 60
- Plant response rating, Blackgrass (blackgrass [22]; [25]): 30
- Plant response rating, Blackgrass (blackgrass [22]; [26]): 60
- Plant response rating, Galium (galium; [25]): 80
- Plant response rating, Galium (galium; [26]): 90

SMILES: C[C@H]1CN(C(=O)c2cccc(-n3cncn3)c2)c2cccc(C#N)c2O1 [Compound 46]
- Plant response rating, Oat, Wild (oat, wild [1]; [23]): 0
- Plant response rating, Oat, Wild (oat, wild [1]; [24]): 70
- Plant response rating, Corn (corn [2]; [23]): 0
- Plant response rating, Corn (corn [2]; [24]): 0
- Plant response rating, Corn (corn [3]; [25]): 10
- Plant response rating, Corn (corn [3]; [26]): 30
- Plant response rating, Barnyardgrass (barnyardgrass): 0
- Plant response rating, Ragweed (ragweed [4]; [25]): 0
- Plant response rating, Ragweed (ragweed [4]; [26]): 0
- Plant response rating, Soybean (soybean [5]; [25]): 90
- Plant response rating, Soybean (soybean [5]; [26]): 100
- Plant response rating, Goosegrass (goosegrass [6]; [23]): 60
- Plant response rating, Goosegrass (goosegrass [6]; [24]): 100
- Plant response rating, Kochia (kochia [7]; [25]): 20
- Plant response rating, Kochia (kochia [7]; [26]): 80
- Plant response rating, Ducksalad (ducksalad): 0
- Plant response rating, Oat, Wild (oat, wild [8]; [25]): 0
- Plant response rating, Oat, Wild (oat, wild [8]; [26]): 40
- Plant response rating, Rice (rice): 0
- Plant response rating, Ryegrass, Italian (ryegrass, Italian [9]; [25]): 40
- Plant response rating, Ryegrass, Italian (ryegrass, Italian [9]; [26]): 80
- Plant response rating, Pigweed, Palmer (pigweed, palmer [10]; [25]): 20
- Plant response rating, Pigweed, Palmer (pigweed, palmer [10]; [26]): 50
- Plant response rating, Soybean (soybean [11]; [23]): 20
- Plant response rating, Soybean (soybean [11]; [24]): 60
- Plant response rating, Pigweed, Palmer (pigweed, palmer [12]; [23]): 40
- Plant response rating, Pigweed, Palmer (pigweed, palmer [12]; [24]): 90
- Plant response rating, Blackgrass (blackgrass [13]; [23]): 60
- Plant response rating, Blackgrass (blackgrass [13]; [24]): 90
- Plant response rating, Ryegrass, Italian (ryegrass, Italian [14]; [23]): 60
- Plant response rating, Ryegrass, Italian (ryegrass, Italian [14]; [24]): 80
- Plant response rating, Wheat (wheat [15]; [25]): 10
- Plant response rating, Wheat (wheat [15]; [26]): 50
- Plant response rating, Ragweed (ragweed [16]; [23]): 0
- Plant response rating, Ragweed (ragweed [16]; [24]): 0
- Plant response rating, Kochia (kochia [17]; [24]): 40
- Plant response rating, Sedge, Umbrella (sedge, umbrella): 0
- Plant response rating, Foxtail, Giant (foxtail, giant [18]; [23]): 60
- Plant response rating, Foxtail, Giant (foxtail, giant [18]; [24]): 100
- Plant response rating, Wheat (wheat [19]; [23]): 0
- Plant response rating, Wheat (wheat [19]; [24]): 30
- Plant response rating, Foxtail, Giant (foxtail, giant [20]; [25]): 20
- Plant response rating, Foxtail, Giant (foxtail, giant [20]; [26]): 90
- Plant response rating, Goosegrass (goosegrass [21]; [25]): 10
- Plant response rating, Goosegrass (goosegrass [21]; [26]): 60
- Plant response rating, Blackgrass (blackgrass [22]; [25]): 30
- Plant response rating, Blackgrass (blackgrass [22]; [26]): 70
- Plant response rating, Galium (galium; [25]): 60
- Plant response rating, Galium (galium; [26]): 100
